Measured values as given in patent US12240840B2, “Amide-substituted heterocyclic compounds for the treatment of conditions related to the modulation of IL-12, IL-23 and/or IFN-alpha” (BRISTOL-MYERS SQUIBB COMPANY, priority 2018, dated 2025).
pIC50: −log10 of the molar value.

The compounds below were run on IFNα-induced pSTAT5 (pY694) in CD3 positive cells of human whole blood (assay: IFNα-Induced STAT Phosphorylation in Human Whole Blood). Conditions: 1 h compound incubation, 1000 U/mL recombinant human IFNα A/D for 15 min, pSTAT5 in CD3 positive population, read-out: Human WB IFNα-Induced Stat Phosph. (IC50).
Assay type: cell-based
How it was run: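 Read-out is median fluorescence intensity of pSTAT5 (pY694) in the CD3-positive gate, by flow cytometry after fix/lyse and permeabilization. Before that, whole human blood anticoagulated with EDTA or ACD-A received compound for an hour and 1000 U/mL IFNα A/D for 15 min.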

pIC50 | SMILES
6.54 | [2H]C([2H])([2H])NC(=O)c1cnc(NC(=O)C2CC2)cc1Nc1cccc(-c2ccn(CCNC(=O)COC)n2)c1OC [Example 472]

Same assay, conditions: Homo sapiens, 1 h compound incubation, 1000 U/mL recombinant human IFNα A/D for 15 min, pSTAT5 in CD3 positive population, read-out: Human WB IFNα-Induced Stat Phosph. (IC50)

SMILES | pIC50
[2H]C([2H])([2H])NC(=O)c1nnc(NC(=O)C2CC2)cc1Nc1cccc(-c2cc(C(=O)N3CCC(CCN4CCCC4)CC3)n(C)n2)c1OC [Example 541] | 5.86
COc1c(Nc2cc(NC(=O)C3CC3)nnc2C(N)=O)cccc1-c1ncc(C(=O)N2CCCCC2)s1 [Example 403] | 6.72
[2H]C([2H])([2H])NC(=O)c1nnc(NC(=O)C2CC2)cc1Nc1cccc(-c2ncc(CNC(=O)CC#N)s2)c1OC [Example 264] | 5.81
[2H]C([2H])([2H])NC(=O)c1cnc(NC(=O)C2CC2)cc1Nc1cccc(-c2cnn(CCNC(=O)OC(C)(C)C)n2)c1OC [Example 430] | < 5.00
[2H]C([2H])([2H])NC(=O)c1nnc(NC(=O)C2CC2)cc1Nc1cccc(-c2nc(CNC(=O)CN(C)C(=O)OC(C)(C)C)no2)c1OC [Example 153] | < 5.00
[2H]C([2H])([2H])NC(=O)c1nnc(NC(=O)C2CC2)cc1Nc1cccc(-c2nc(CN(C)C(=O)CN(C)C)no2)c1OC [Example 172] | 5.84
[2H]C([2H])([2H])NC(=O)c1nnc(NC(=O)C2CC2)cc1Nc1cccc(-c2nc([C@H](COC(C)=O)NC(C)=O)no2)c1OC [Example 200] | 6.12
[2H]C([2H])([2H])NC(=O)c1cnc(NC(=O)C2CC2)cc1Nc1cccc(-c2nc(C(C)N3CCN(C(C)=O)CC3)no2)c1OC (stereo not drawn) [Example 222] | 5.83
[2H]C([2H])([2H])NC(=O)c1nnc(NC(=O)C2CC2)cc1Nc1cccc(-c2cnn(CC(=O)NCCO)n2)c1OC [Example 429] | 6.72
[2H]C([2H])([2H])NC(=O)c1nnc(NC(=O)C2CC2)cc1Nc1cc(F)cc(-c2cc(C(=O)N(C)CCCN(C)C)n(C)n2)c1OC [Example 510] | 6.34
[2H]C([2H])([2H])NC(=O)c1nnc(NC(=O)C2CC2)cc1Nc1cccc(-c2nc(C)c(C(=O)N3CCC3)s2)c1OC [Example 358] | 6.68
[2H]C([2H])([2H])NC(=O)c1nnc(NC(=O)C2CC2)cc1Nc1cccc(-c2ncc(CNS(C)(=O)=O)s2)c1OC [Example 265] | 6.28

Next, values leading:

pIC50 | SMILES
6.96 | [2H]C([2H])([2H])NC(=O)c1nnc(NC(=O)C2CC2)cc1Nc1cc(F)cc(-c2cc(C(=O)N3CCN(C)CC3)n(C)n2)c1OC [Example 497]
6.80 | [2H]C([2H])([2H])NC(=O)c1nnc(NC(=O)C2CC2)cc1Nc1cccc(-c2ncc(C(=O)NCC)s2)c1OC [Example 272]
6.96 | [2H]C([2H])([2H])NC(=O)c1nnc(NC(=O)C2CC2)cc1Nc1cccc(-c2cc(C(=O)N3CCCCC3)n(C)n2)c1OC [Example 479]
7.40 | COc1c(Nc2cc(NC(=O)C3CC3)nnc2C(N)=O)cccc1-c1ncc(C(=O)NCCC2CCCN2C)o1 (stereo not drawn) [Example 415]
6.89 | [2H]C([2H])([2H])NC(=O)c1nnc(NC(=O)C2CC2)cc1Nc1cccc(-c2ncc(C(C)O)s2)c1OC (stereo not drawn) [Example 258]
7.40 | [2H]C([2H])([2H])NC(=O)c1nnc(NC(=O)C2CC2)cc1Nc1cccc(-c2noc(CN3CCOC3=O)n2)c1OC [Example 77]
6.74 | [2H]C([2H])([2H])NC(=O)c1nnc(NC(=O)C2CC2)cc1Nc1cc(F)cc(-c2cc(C(=O)N3C[C@@H](C)O[C@@H](C)C3)n(C)n2)c1OC [Example 499]
7.52 | COc1c(Nc2cc(NC(=O)C3CC3)nnc2C(N)=O)cccc1-c1noc([C@@H]2[C@H](O)CCN2S(C)(=O)=O)n1 [Example 66]
7.66 | [2H]C([2H])([2H])NC(=O)c1nnc(NC(=O)C2CC2)cc1Nc1cccc(-c2ncc(C(=O)N3CCC(N(CC)CC)CC3)s2)c1OC [Example 343]
7.64 | COc1c(Nc2cc(NC(=O)C3CC3)nnc2C(N)=O)cccc1-c1noc(CN(C2CC2)S(C)(=O)=O)n1 [Example 60]
7.30 | [2H]C([2H])([2H])NC(=O)c1nnc(NC(=O)C2CC2)cc1Nc1cccc(-c2ncc(C(=O)N3CC(N(C)C)C3)s2)c1OC [Example 334]
